Test results reported in ChEMBL document CHEMBL5113520, “From a Cone Snail Toxin to a Competitive MC4R Antagonist” (J Med Chem, 2022).
Where a SMILES comes first, the peptide text is derived from it. Bridges are numbered along the chain shown (N, C = ends).

Legend:
Type in all cases: cell-based
Melanocortin receptor 4 = Melanocortin receptor 4 (Homo sapiens, UniProt P32245); experiment: Displacement of [125I]-NDP-alpha-MSH from human MC4R expressed in CHO cells by Topcount beta counter analysis
Melanocortin receptor 5 = Melanocortin receptor 5 (Homo sapiens, UniProt P33032); experiment: Displacement of [125I]-NDP-alpha-MSH from human MC5R expressed in CHO cells by Topcount beta counter analysis
[1] = target: Melanocyte-stimulating hormone receptor (Homo sapiens, UniProt Q01726); experiment: Displacement of [125I]-NDP-alpha-MSH from human MC1R expressed in CHO cells by Topcount beta counter analysis
Melanocortin receptor 3 = Melanocortin receptor 3 (Homo sapiens, UniProt P41968); experiment: Displacement of [125I]-NDP-alpha-MSH from human MC3R expressed in HEK293 cells by Topcount beta counter analysis
Chain of Melanocortin receptor 3 (P41968 whole entry): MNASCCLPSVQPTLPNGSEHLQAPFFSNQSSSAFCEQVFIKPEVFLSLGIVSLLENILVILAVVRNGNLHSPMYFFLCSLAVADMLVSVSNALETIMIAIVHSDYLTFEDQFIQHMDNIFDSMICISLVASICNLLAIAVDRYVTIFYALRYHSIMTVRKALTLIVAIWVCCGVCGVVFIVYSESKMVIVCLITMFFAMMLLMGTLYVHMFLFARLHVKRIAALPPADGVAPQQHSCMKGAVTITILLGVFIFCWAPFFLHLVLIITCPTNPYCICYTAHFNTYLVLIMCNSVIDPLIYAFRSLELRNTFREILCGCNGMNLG

Chain of Melanocortin receptor 4 (P32245 whole entry): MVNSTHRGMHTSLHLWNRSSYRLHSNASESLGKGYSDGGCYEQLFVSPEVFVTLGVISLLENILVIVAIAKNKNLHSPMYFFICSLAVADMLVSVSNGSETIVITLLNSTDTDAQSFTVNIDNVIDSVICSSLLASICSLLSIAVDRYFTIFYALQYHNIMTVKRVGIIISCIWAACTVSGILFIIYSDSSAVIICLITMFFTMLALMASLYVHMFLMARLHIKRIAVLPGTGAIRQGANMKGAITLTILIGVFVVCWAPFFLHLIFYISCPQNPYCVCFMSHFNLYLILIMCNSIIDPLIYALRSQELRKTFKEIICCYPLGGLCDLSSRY
Chain of Melanocortin receptor 5 (P33032 whole entry): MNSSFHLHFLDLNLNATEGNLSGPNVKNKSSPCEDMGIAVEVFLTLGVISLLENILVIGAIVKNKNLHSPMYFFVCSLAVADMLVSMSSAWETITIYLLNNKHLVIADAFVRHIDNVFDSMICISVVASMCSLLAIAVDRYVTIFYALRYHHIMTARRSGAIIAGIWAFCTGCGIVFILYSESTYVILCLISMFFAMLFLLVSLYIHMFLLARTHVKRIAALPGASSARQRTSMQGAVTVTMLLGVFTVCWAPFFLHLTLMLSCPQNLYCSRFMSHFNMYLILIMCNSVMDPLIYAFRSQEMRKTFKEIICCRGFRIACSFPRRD
Chain of Melanocyte-stimulating hormone receptor (Q01726 whole entry): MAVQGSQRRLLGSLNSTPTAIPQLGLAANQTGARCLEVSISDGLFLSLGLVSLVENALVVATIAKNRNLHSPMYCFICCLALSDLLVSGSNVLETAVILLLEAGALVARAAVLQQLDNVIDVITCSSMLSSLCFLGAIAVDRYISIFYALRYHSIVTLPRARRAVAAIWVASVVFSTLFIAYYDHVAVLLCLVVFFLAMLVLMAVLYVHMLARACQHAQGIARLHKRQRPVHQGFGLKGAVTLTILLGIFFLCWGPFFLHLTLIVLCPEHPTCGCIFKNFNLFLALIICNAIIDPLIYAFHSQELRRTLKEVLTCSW

Compound: H-AFHYQQKQKPPGFKGKFQQFKLRPP-OH
- Ki (Melanocortin receptor 4; read-out: Ki): 125 nM
- Ki (Melanocortin receptor 4; read-out: pKi (converted)): 123 nM

Compound: CC(C)C[C@H](NC(=O)[C@H](CCCCN)NC(=O)[C@H](Cc1ccccc1)NC(=O)[C@H](CCC(N)=O)NC(=O)[C@@H]1CSSC[C@H](NC(=O)[C@H](Cc2ccc(O)cc2)NC(=O)[C@H](Cc2c[nH]cn2)NC(=O)[C@H](Cc2ccccc2)NC(=O)[C@@H](N)CC(C)C)C(=O)N[C@@H](CCC(N)=O)C(=O)N[C@H]2CSSC[C@H](NC(=O)[C@H](CCC(N)=O)NC2=O)C(=O)N2CCC[C@H]2C(=O)N2CCC[C@H]2C(=O)NCC(=O)N[C@@H](Cc2ccccc2)C(=O)N[C@@H](CCCCN)C(=O)NCC(=O)N[C@@H](CCCCN)C(=O)N[C@@H](Cc2ccccc2)C(=O)N1)C(=O)N[C@@H](CCCNC(=N)N)C(=O)N1CCC[C@H]1C(=O)N1CCC[C@H]1C(=O)O (H-LFHYCQCQCPPGFKGKFCQFKLRPP-OH; disulfide 5-18, 7-9)
- Ki (Melanocortin receptor 5; read-out: Ki): 41 nM
- Ki (Melanocortin receptor 5; read-out: pKi (converted)): 28.8 nM
- Ki ([1]; read-out: Ki): 554 nM
- Ki ([1]; read-out: pKi (converted)): 490 nM
- Ki (Melanocortin receptor 4; read-out: Ki): 48 nM
- Ki (Melanocortin receptor 4; read-out: pKi (converted)): 43.7 nM
- Ki (Melanocortin receptor 3; read-out: Ki): 110 nM
- Ki (Melanocortin receptor 3; read-out: pKi (converted)): 97.7 nM

Compound: H-LFHAQQKQKPPGFKGKFQQFKLRPP-OH
- Ki (Melanocortin receptor 4; read-out: Ki): 111 nM

Compound: CC(C)C[C@H](NC(=O)[C@H](CCCCN)NC(=O)[C@H](Cc1ccccc1)NC(=O)[C@H](CCC(N)=O)NC(=O)[C@@H]1CSSC[C@@H]2NC(=O)[C@H](CCC(N)=O)NC(=O)[C@@H](NC(=O)[C@H](Cc3ccc(O)cc3)NC(=O)[C@H](Cc3c[nH]cn3)NC(=O)[C@H](Cc3ccccc3)NC(=O)[C@@H](N)CC(C)C)CSSC[C@H](NC(=O)[C@H](CCC(N)=O)NC2=O)C(=O)N2CCC[C@H]2C(=O)N2CCC[C@H]2C(=O)NCC(=O)N[C@@H](Cc2ccccc2)C(=O)N[C@@H](CCCCN)C(=O)NCC(=O)N[C@@H](CCCCN)C(=O)N[C@@H](Cc2ccccc2)C(=O)N1)C(=O)N[C@@H](CCCNC(=N)N)C(=O)N1CCC[C@H]1C(=O)N1CCC[C@H]1C(=O)O (H-LFHYCQCQCPPGFKGKFCQFKLRPP-OH; disulfide 5-9, 7-18)
- Ki (Melanocortin receptor 5; read-out: Ki): 53 nM
- Ki (Melanocortin receptor 5; read-out: pKi (converted)): 33.9 nM
- Ki ([1]; read-out: Ki): 549 nM
- Ki ([1]; read-out: pKi (converted)): 617 nM
- Ki (Melanocortin receptor 4; read-out: Ki): 49 nM
- Ki (Melanocortin receptor 4; read-out: pKi (converted)): 44.7 nM
- Ki (Melanocortin receptor 3; read-out: Ki): 90 nM

Compound: CC(C)C[C@H](NC(=O)[C@H](CCCCN)NC(=O)[C@H](Cc1ccccc1)NC(=O)[C@H](CCC(N)=O)NC(=O)[C@@H]1CSSC[C@H](NC(=O)[C@H](Cc2ccc(O)cc2)NC(=O)[C@H](Cc2c[nH]cn2)NC(=O)[C@H](Cc2ccccc2)NC(=O)[C@@H](N)CC(C)C)C(=O)N[C@@H](CCC(N)=O)C(=O)N[C@@H](CO)C(=O)N[C@@H](CCC(N)=O)C(=O)N[C@@H](CO)C(=O)N2CCC[C@H]2C(=O)N2CCC[C@H]2C(=O)NCC(=O)N[C@@H](Cc2ccccc2)C(=O)N[C@@H](CCCCN)C(=O)NCC(=O)N[C@@H](CCCCN)C(=O)N[C@@H](Cc2ccccc2)C(=O)N1)C(=O)N[C@@H](CCCNC(=N)N)C(=O)N1CCC[C@H]1C(=O)N1CCC[C@H]1C(=O)O (H-LFHYCQSQSPPGFKGKFCQFKLRPP-OH; disulfide 5-18)
- Ki (Melanocortin receptor 5; read-out: pKi (converted)): 229 nM
- Ki ([1]; read-out: pKi (converted)): 776 nM
- Ki (Melanocortin receptor 4; read-out: pKi (converted)): 67.6 nM
- Ki (Melanocortin receptor 3; read-out: pKi (converted)): 224 nM

Compound: CC(C)C[C@H](NC(=O)[C@H](CCCCN)NC(=O)[C@H](Cc1ccccc1)NC(=O)[C@H](CCC(N)=O)NC(=O)[C@@H]1CSSC[C@H](NC(=O)[C@H](CCC(N)=O)NC(=O)[C@@H]2CSSC[C@H](NC(=O)[C@H](Cc3ccc(O)cc3)NC(=O)[C@H](Cc3c[nH]cn3)NC(=O)[C@H](Cc3ccccc3)NC(=O)[C@@H](N)CC(C)C)C(=O)N[C@@H](CCC(N)=O)C(=O)N2)C(=O)N2CCC[C@H]2C(=O)N2CCC[C@H]2C(=O)NCC(=O)N[C@@H](Cc2ccccc2)C(=O)N[C@@H](CCCCN)C(=O)NCC(=O)N[C@@H](CCCCN)C(=O)N[C@@H](Cc2ccccc2)C(=O)N1)C(=O)N[C@@H](CCCNC(=N)N)C(=O)N1CCC[C@H]1C(=O)N1CCC[C@H]1C(=O)O (H-LFHYCQCQCPPGFKGKFCQFKLRPP-OH; disulfide 5-7, 9-18)
- Ki (Melanocortin receptor 5; read-out: Ki): 30 nM
- Ki (Melanocortin receptor 5; read-out: pKi (converted)): 28.8 nM
- Ki ([1]; read-out: Ki): 530 nM
- Ki ([1]; read-out: pKi (converted)): 513 nM
- Ki (Melanocortin receptor 4; read-out: Ki): 45 nM
- Ki (Melanocortin receptor 4; read-out: pKi (converted)): 41.7 nM
- Ki (Melanocortin receptor 3; read-out: Ki): 83 nM
- Ki (Melanocortin receptor 3; read-out: pKi (converted)): 69.2 nM

Compound: H-YQQKQKPPGFKGKFQQFKLRPP-OH
- Ki (Melanocortin receptor 4; read-out: Ki): 1440 nM
- Ki (Melanocortin receptor 4; read-out: pKi (converted)): 1320 nM

Compound: H-LFHYQQKQKPPGFKGKFQQF-OH
- Ki (Melanocortin receptor 4; read-out: Ki): 55 nM
- Ki (Melanocortin receptor 4; read-out: pKi (converted)): 53.7 nM

Compound: CC(C)C[C@H](NC(=O)[C@H](CCCCN)NC(=O)[C@H](Cc1ccccc1)NC(=O)[C@H](CCC(N)=O)NC(=O)[C@@H]1CSSC[C@H](NC(=O)[C@H](CCC(N)=O)NC(=O)[C@H](C)NC(=O)[C@H](Cc2ccc(O)cc2)NC(=O)[C@H](Cc2c[nH]cn2)NC(=O)[C@H](Cc2ccccc2)NC(=O)[C@@H](N)CC(C)C)C(=O)N[C@@H](CCC(N)=O)C(=O)N[C@@H](C)C(=O)N2CCC[C@H]2C(=O)N2CCC[C@H]2C(=O)NCC(=O)N[C@@H](Cc2ccccc2)C(=O)N[C@@H](CCCCN)C(=O)NCC(=O)N[C@@H](CCCCN)C(=O)N[C@@H](Cc2ccccc2)C(=O)N1)C(=O)N[C@@H](CCCNC(=N)N)C(=O)N1CCC[C@H]1C(=O)N1CCC[C@H]1C(=O)O (H-LFHYAQCQAPPGFKGKFCQFKLRPP-OH; disulfide 7-18)
- Ki (Melanocortin receptor 4; read-out: pKi (converted)): 245 nM

Compound: H-LFHYQQKQKPPGFKGKFQQFKLR-OH
- Ki (Melanocortin receptor 4; read-out: Ki): 14 nM
- Ki (Melanocortin receptor 4; read-out: pKi (converted)): 12.3 nM

Compound: H-FHYQQKQKPPGFKGKFQQFKLRPP-OH
- Ki (Melanocortin receptor 4; read-out: Ki): 334 nM
- Ki (Melanocortin receptor 4; read-out: pKi (converted)): 288 nM

Compound: Ac-LFHYQQKQKPPGFKGKFQQFKLRPP-OH
- Ki (Melanocortin receptor 4; read-out: Ki): 138 nM
- Ki (Melanocortin receptor 4; read-out: pKi (converted)): 135 nM
